According to patent publication EP3683219A1, “COMPOUND INHIBITING BUTYRYLCHOLINESTERASE” (Julius-Maximilians-Universität Würzburg, priority 2019, dated 2020):

How the values were obtained:
[1] = target: T1, hBChE (Homo sapiens, UniProt P06276); assay: biochemical; assay type: biochemical; conditions: for plC50 ± SEM (hBChE) / IC50: enzyme activity measured after 20 min incubation; for IC50: read-out: IC50 hBChE; for Selectivity index (IC50 hAChE/IC50 hBChE): hAChE over hBChE
Method: (§1) For evaluation of enzyme inhibition, Ellman's colorimetric assay was conducted as described in Ellman, G. L., Arch. Biochem. Biophys 1958, 74, 443-450 and Ellman, G. L. et al., Biochem. Pharmacol. 1961, 7, 88-95. Therefor, 5,5'-dithiobis-(2-nitrobenzoic acid) (DTNB) solution, respective Cholinesterase (ChE) and inhibitor were incubated together and enzyme activity was measured after 20 min. The long incubation time was needed to allow the carbamate transfer between ChE and inhibitor.
(§2) The carbamate residue was altered systematically by changing residues in the terminal position of carbamate moiety and different flexible alkylene linkers were introduced. […] Nevertheless, it must be noted that IC50 values only serve as a first indicator of inhibitor affinity and selectivity. Due to the chemical reaction of carbamate transfer the enzyme inhibition is strongly time dependent. […]

[2] = target: hAChE (Homo sapiens, UniProt P22303); assay: Ellman's colorimetric assay, inhibition of hAChE; assay type: biochemical
Method: as §1, §2

[3] = target: T1, hBChE; assay: Carbamoylation kinetics on hBChE (time-dependent inhibition, Kc and k3); assay type: biochemical; conditions: for k3 [min^-1] hBChE: carbamoylation rate constant; for Kd: carbamoylation, pre-equilibrium constant
Source text: As carbamate based inhibitors (C-X) show a pseudo irreversible manner of binding, the IC50 values must be seen critically because two chemical reactions determine them: Carbamate (C) transfer onto the enzyme (E) and carbamate hydrolysis. So, the Kc values, k3 and k4 rate constants according to below formula were investigated for some representative compounds (c.f. Fig. 3 and Fig. 4). [formula]
The mechanism of enzyme inhibition can be divided into three steps: In a pre-equilibrium, the carbamate based inhibitor C-X is bound to the enzyme E and a complex (EC-X) is formed reversible and can be characterized with Kc. Then the carbamate C is transferred onto the enzyme E and binds covalently to form E-C with the rate constant k3 while carrier scaffold X is released. Then E-C is hydrolyzed and enzyme activity is recovered and the amine C' is released with the rate constant k4, also called decarbamoylation rate.
For the determination of Kc and k3 a similar experimental setup was used compared to the evaluation of IC50 values, whereas enzyme activity was measured at various time points after addition of inhibitor.
A = A0 ⋅e^(−kobs ⋅t) + A∞ [formula]
Plotting the enzyme activity (in %) against the incubation times, lead to nonlinear time-dependent inhibition curves for the respective inhibitor concentrations whereby kobs can be determined with an exponential fit correspondent to equation (I).
Furthermore, a hyperbolic curve is obtained, plotting the rate constant kobs against the inhibitor concentration [I], which is described by equation (II), with the substrate concentration [S] and the Michaelis-Menten constant KM. kobs = (k3 ⋅[I])/(KC ⋅(1+([S])/(KM)) + [I]) [formula]
This equation (II) can be rearranged to the reciprocal of kobs, to get a linear plot: (1)/(kobs) = (KC ⋅(1+([S])/(KM)))/(k3)⋅(1)/([I]) + (1)/(k3) [formula]
Since the substrate butyrylthiocholine iodide is not added directly to the enzyme and the inhibitor, but after the incubation of enzyme with inhibitor, [S] can be set to zero, leading to Michaelis-Menten like equation IV. (1)/(kobs) = (KC)/(k3)⋅(1)/([I]) + (1)/(k3) [formula]
Relating to the linear equation (IV), KC can be established from the slope and carbamoylation rate constant k3 from the y-intercept.
As a chemical reaction is taking place, Kc must be seen as a 'real' measure for quantification of enzyme inhibitor interactions. Due to the high costs in measurements on hBChE only some representative compounds were chosen to evaluate also in kinetic studies based on the results from IC50 measurements (table 3). Table 3. Kinetic values for carbamoylation on hBChE for selected representative compounds

[4] = target: T1, hBChE; assay: Decarbamoylation from hBChE, dilution experiments (recovery of enzyme activity, k4); assay type: biochemical; conditions: decarbamoylation rate, after 1 h incubation and 1:1000 dilution
Method: To further investigate the presence and nature of a peripheral binding site, also the hydrolysis of carbamate and the resulting release of the inhibitor from the enzyme was investigated by measuring the time dependent recovery of enzyme activity. To measure the decarbamoylation rate k4, dilution experiments were performed with hBChE following the procedure described in Sawatzky, E. et al., ChemMedChem 2016, 11, 1540-1550 and in Bartolucci, C. et al., Biochem. J. 2012, 444, 269-277. A high concentration of enzyme and inhibitor where incubated for 1 h. The concentration of inhibitor was chosen, such that > 85% of hBChE was inhibited through carbamate transfer. Then the mixture was diluted with buffer 1:1000 to a concentration at which the enzyme is not further carbamoylated. Due to the hydrolysis and release of the carbamate from the catalytic active serine enzyme activity was recovered slowly. This regeneration of the enzyme was monitored at different time points after the dilution. […] A = (1−e^(k4 ⋅t))⋅(1−A0) + A0 [formula] Table 4. Kinetic values for decarbamoylation from hBChE of selected compounds

[5] = system: Aβ25-35-induced spontaneous alternation deficits; assay: Spontaneous alternation test in the Y-maze, Aβ25-35-injected mice; assay type: in vivo, male Swiss mice; conditions: for prevention of the effects of Aβ injection, both behavioral parameters: dose of 1 or 3 mg/kg ip, Y-maze and passive avoidance; for dose active on Aβ25-35-induced spontaneous alternation deficits: ip o.d. day 1 to 7, Y-maze day 8
Method: 2013, 38, pages 1706-1723.
AD-like cognitive dysfunctions were induced in male Swiss mice, 6 weeks old, weighing 31-36 g by intracerebroventricular (icv) injection of the oligomerized Aβ25-35 peptide into the mouse brain on day 1.
Compounds were weighed, dissolved in pure DMSO at a concentration of 1 mg/ml and diluted into final test concentrations with saline. The final percentage of DMSO in saline was 60% for all compounds. Vehicle solution used for control groups was 60% DMSO in saline. Compounds were injected intraperitoneally (ip) from day 1 to 7 and behavioral studies were conducted between day 8 and 10. Spatial working memory was evaluated using a spontaneous alternation test in a Y-maze on day 8. The Y-maze is made of grey polyvinylchloride. Each arm is 40 cm long, 13 cm high, 3 cm wide at the bottom, 10 cm wide at the top, and converging at an equal angle. Each mouse is placed at the end of one arm and allowed to explore the maze freely for 8 min. The sequence of arm entries (including possible returns into the same arm) was checked visually and noted down. If the mouse enters all three arms on consecutive occasion, this is defined as an alternation. Therefore, the total number of arm entries minus two is also the maximum number of alternations. The percentage of alternation was calculated as (actual alternations / maximum alternations) x 100. Parameters for the evaluation of behavior are given as the percentage of alternation (memory index) and a total number of arm entries (exploration index).
Figs. 7a-h show the effect of the compounds on Aβ25-35-induced spontaneous alternation deficits in mice. […] Figs. 7a, c, e, g: spontaneous alternation performance; Figs. 7b, d, f, h: number of arm entries in the Y-maze test performed at day 8.

[6] = system: Aβ25-35-induced passive avoidance impairments; assay: Step-through passive avoidance test, Aβ25-35-injected mice; assay type: in vivo, male Swiss mice; conditions: 0.3-3 mg/kg ip o.d. day 1 to 7; retention day 10

T1 sequence (P06276 29-602): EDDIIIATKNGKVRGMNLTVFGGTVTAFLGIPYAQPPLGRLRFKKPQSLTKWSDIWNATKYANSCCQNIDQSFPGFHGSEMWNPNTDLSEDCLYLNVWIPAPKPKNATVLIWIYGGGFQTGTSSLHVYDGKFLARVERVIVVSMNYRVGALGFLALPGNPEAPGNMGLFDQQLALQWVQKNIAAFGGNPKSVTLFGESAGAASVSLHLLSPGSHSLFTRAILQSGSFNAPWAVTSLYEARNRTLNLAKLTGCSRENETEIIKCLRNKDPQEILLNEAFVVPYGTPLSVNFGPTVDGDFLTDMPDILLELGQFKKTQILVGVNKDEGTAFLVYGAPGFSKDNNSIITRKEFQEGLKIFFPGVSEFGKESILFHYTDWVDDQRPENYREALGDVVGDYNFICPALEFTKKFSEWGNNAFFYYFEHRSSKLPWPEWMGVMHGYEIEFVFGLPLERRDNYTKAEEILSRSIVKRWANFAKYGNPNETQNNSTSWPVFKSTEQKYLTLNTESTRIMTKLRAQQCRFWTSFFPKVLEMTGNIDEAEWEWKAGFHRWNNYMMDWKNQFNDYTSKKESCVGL
hAChE, sequence (P22303 32-614): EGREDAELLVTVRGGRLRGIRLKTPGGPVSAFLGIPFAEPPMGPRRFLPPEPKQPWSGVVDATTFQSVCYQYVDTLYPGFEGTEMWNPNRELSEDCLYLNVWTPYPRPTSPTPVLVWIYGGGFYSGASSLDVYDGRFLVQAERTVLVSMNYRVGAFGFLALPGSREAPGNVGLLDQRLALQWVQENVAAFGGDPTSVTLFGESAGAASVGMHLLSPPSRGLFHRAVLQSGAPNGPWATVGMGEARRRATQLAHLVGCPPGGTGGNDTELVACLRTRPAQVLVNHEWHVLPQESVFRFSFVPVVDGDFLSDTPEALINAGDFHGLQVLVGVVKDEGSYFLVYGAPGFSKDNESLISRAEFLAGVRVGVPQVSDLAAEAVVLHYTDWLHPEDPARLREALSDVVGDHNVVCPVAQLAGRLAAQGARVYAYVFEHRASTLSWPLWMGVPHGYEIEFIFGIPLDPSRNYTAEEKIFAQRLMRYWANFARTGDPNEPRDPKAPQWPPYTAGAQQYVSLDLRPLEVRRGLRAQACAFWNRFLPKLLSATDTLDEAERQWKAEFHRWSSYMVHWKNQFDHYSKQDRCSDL

| Compound | fold lower activity than heptyl carbamate 7 (IC50 hBChE) ([1]; compared with compound 7) | plC50 ± SEM (hBChE) [1] | IC50 [1] | Selectivity index (IC50 hAChE/IC50 hBChE) [1] | inhibition at 100 µM ([2]; 100 µM, read-out: inhibition of hAChE) | k3 [min^-1] hBChE [3] | Kd [3] | k4 [4] | prevention of the effects of Aβ injection, both behavioral parameters [5] | dose active on Aβ25-35-induced spontaneous alternation deficits [5] | effect on Aβ25-35-induced passive avoidance deficits (step-through latency, retention) [6] | inhibition at 10 µM ([2]; 10 µM) | Kc values (hBChE), in words [3] |
| --- | --- | --- | --- | --- | --- | --- | --- | --- | --- | --- | --- | --- | --- |
| CN1c2ccc(OC(=O)NCCCCCCN3CCOCC3)cc2CN2CCc3ccccc3C21 (stereo not shown) [Compound 19d] | approximately 10 fold | 7.31 ± 0.02 | 49.3 nM | >1000 | 45% | 0.16 ± 0.02 min⁻¹ | 202 ± 55 nM | 0.042 ± 0.004 h⁻¹ | fully prevented the effects of Aβ injection | 0.3 mg/kg ip | effective at the 3 doses tested |  |  |
| CN1c2ccc(OC(=O)NCCCCCCN3CCc4ccccc4C3)cc2CN2CCc3ccccc3C21 (stereo not shown) [Compound 19j] |  | 7.57 ± 0.05 | 26.7 nM | >1000 |  | 0.18 ± 0.02 min⁻¹ | 3.6 ± 2.9 nM | 0.025 ± 0.001 h⁻¹ | fully prevented the effects of Aβ injection | 1 mg/kg ip | effective at the 3 doses tested | 9% | one-digit nanomolar range |
